The first assay deals with T1, Cholinesterase (Homo sapiens, UniProt P06276). The assay can be described thus: Inhibitory concentration against butyrylcholinesterase.
T1 sequence (P06276 whole entry): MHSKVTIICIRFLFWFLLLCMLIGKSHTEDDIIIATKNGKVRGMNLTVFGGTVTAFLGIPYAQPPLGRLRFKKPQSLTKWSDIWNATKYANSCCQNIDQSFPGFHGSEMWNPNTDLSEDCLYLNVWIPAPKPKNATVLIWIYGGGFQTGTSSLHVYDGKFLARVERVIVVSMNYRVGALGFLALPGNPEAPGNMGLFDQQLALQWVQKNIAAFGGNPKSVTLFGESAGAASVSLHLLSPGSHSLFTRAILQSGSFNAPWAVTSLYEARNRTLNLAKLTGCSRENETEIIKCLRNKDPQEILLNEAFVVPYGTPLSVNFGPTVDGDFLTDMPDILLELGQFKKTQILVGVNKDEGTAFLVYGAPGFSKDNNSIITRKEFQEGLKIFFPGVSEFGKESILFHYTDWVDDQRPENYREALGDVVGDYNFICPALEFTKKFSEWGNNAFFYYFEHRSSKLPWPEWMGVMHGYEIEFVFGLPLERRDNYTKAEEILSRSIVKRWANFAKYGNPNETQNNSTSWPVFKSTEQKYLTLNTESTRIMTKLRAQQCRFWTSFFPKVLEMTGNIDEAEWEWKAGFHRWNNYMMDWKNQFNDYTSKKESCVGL
As to `Cc1c(Cl)nc2ccccc2c1C(=O)NCCCCCCCNc1c2c(nc3ccccc13)CCCC2`, the midpoint of inhibition, the IC50, lay at 32 nM. Same read-out and setting: to `Cc1c(N2CCN(C)CC2)nc2ccccc2c1C(=O)NCCCCCCCNc1c2c(nc3ccccc13)CCCC2` belongs 40 nM.

Another assay deals with T1, Cholinesterase.
Turning to `CCOC(=O)c1c(C)c(N2CCN(C)CC2)nc2ccccc12`, the IC50 (in general, the concentration needed to halve the response being measured) was above 10000 nM. On to `Cc1c(N2CCN(C)CC2)nc2ccccc2c1C(=O)N(C)Cc1ccccc1`, for which the IC50 was above 10000 nM.

In a further assay the target is T2, Acetylcholinesterase (Homo sapiens, UniProt P22303).
T2 sequence (P22303 whole entry): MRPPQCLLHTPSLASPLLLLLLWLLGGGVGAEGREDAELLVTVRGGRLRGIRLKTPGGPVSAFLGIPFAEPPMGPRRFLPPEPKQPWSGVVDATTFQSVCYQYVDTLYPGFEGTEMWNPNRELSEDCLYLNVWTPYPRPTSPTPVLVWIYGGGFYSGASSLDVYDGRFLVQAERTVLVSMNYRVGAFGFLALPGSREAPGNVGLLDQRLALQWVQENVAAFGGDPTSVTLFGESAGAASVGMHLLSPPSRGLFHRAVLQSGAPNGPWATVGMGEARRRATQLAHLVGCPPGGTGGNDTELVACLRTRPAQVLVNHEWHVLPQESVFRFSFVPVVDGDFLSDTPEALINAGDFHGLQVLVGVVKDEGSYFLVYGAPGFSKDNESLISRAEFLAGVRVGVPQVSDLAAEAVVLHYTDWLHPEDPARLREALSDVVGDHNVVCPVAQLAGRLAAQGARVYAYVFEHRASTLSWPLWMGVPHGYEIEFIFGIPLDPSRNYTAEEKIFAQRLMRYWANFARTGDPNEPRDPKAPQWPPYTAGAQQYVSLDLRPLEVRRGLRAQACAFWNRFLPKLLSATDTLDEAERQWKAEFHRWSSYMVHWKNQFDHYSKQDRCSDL
Description: (§1) Inhibitory concentration against human acetylcholinesterase
The compound `Cc1c(Cl)nc2ccccc2c1C(=O)NCCCCCCCNc1c2c(nc3ccccc13)CCCC2` had an IC50 of 3 nM. In turn, `Cc1c(N2CCN(C)CC2)nc2ccccc2c1C(=O)NCCCCCCCNc1c2c(nc3ccccc13)CCCC2` returned an IC50 of 4.1 nM. The IC50 values of the last two compounds are within 1.5-fold of each other.

A further assay deals with T2, Acetylcholinesterase. The source holds these as a separate data set.
Description: as §1
The compound `CCOC(=O)c1c(C)c(N2CCN(C)CC2)nc2ccccc12` showed an IC50 above 10000 nM.

Compound `Cc1c(N2CCN(C)CC2)nc2ccccc2c1C(=O)N(C)Cc1ccccc1` came in with an IC50 above 10000 nM.

A further assay concerns the target T3, Serotonin 3 (5-HT3) receptor (Rattus norvegicus, UniProt P35563+Q9JJ16).
T3 sequence (P35563 whole entry): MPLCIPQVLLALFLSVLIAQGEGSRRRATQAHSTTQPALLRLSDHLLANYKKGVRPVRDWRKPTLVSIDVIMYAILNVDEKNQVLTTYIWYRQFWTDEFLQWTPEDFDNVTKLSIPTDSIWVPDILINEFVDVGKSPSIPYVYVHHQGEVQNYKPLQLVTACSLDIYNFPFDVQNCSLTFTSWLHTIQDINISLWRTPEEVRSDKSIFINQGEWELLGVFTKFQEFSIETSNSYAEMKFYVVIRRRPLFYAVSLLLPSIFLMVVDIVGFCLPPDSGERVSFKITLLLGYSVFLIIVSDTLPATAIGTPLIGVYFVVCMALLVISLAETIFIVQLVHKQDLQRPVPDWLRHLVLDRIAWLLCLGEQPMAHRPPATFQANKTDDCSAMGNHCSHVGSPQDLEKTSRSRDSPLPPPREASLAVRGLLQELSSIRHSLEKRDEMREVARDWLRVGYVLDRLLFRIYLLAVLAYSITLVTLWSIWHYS
T3 sequence (Q9JJ16 whole entry): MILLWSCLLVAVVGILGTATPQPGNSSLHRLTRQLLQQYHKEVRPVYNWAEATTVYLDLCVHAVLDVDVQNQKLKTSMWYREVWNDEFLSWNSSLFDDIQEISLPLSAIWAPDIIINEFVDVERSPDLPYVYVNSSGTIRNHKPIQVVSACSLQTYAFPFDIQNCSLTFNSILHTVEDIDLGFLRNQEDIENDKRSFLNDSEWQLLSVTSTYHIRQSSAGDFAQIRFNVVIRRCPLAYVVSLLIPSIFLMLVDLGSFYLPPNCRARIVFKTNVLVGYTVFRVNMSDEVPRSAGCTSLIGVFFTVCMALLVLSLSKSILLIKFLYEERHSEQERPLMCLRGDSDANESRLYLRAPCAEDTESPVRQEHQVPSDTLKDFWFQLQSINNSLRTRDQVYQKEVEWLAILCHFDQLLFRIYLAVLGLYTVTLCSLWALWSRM
On to `CCCN(CCC)C(=O)c1cc(N2CCN(C)CC2)nc2ccccc12`, for which the Ki (usually the dissociation constant of the complex between target and ligand, obtained from inhibition or displacement) turned out to be 0.68 nM. `CCCN(CCC)C(=O)c1c(CC)c(N2CCN(C)CC2)nc2ccccc12` displayed a Ki of 1.1 nM. For the compound `CCCc1c(N2CCN(C)CC2)nc2ccccc2c1C(=O)N(CC)CC`, the inhibitory constant (Ki) is 0.92 nM. As for `CN1CCN(c2nc3ccccc3c(CO)c2CO)CC1`, the Ki was 2.7 nM. This Ki is about 2.9-fold higher than that of the compound before.

On to `CCCCN(CCCC)C(=O)c1c(C)c(N2CCN(C)CC2)nc2ccccc12`, for which the Ki was found to be 0.78 nM. Compared with the last compound, the Ki is about 3.5-fold lower. `CCCc1c(N2CCN(C)CC2)nc2ccccc2c1C(=O)OCC` gave a Ki of 0.08 nM. Still for that read-out and setting: next, `Cc1c(N2CCN(C)CC2)nc2ccccc2c1C(=O)c1ccccc1`: 0.84 nM. The same measure, in the same setting: to `CN1CCN(c2nc3ccccc3c3c2CN(C)C3=O)CC1` belongs 2.1 nM. As to `CCCc1c(N2CCN(C)CC2)nc2ccccc2c1C(=O)N(C)Cc1ccccc1`, the Ki was 14 nM. Against the preceding compound, the Ki is about 6.7-fold higher. Same read-out and setting: to `CCOC(=O)c1c(CC)c(N2CCN(C)CC2)nc2ccccc12` belongs 0.21 nM. Compound `CCCCCCN(CCCCCC)C(=O)c1c(C)c(N2CCN(C)CC2)nc2ccccc12` gave a Ki of 188 nM. `C#CCN(C)C(=O)c1c(C)c(N2CCN(C)CC2)nc2ccccc12` came in with a Ki of 0.45 nM. Against the preceding compound, the Ki is about 420-fold lower. Still for that read-out and setting: to `CCCN(CCC)C(=O)c1c(C)c(N2CCN(C)CC2)nc2ccccc12` belongs 0.11 nM; to `CCOC(=O)c1cc(N2CCN(C)CC2)nc2ccccc12`, 0.85 nM; to `CCc1c(N2CCN(C)CC2)nc2ccccc2c1C(=O)N(CC)CC`, 0.51 nM. On the same count and under the same terms, next, `CCN(CC)C(=O)c1cc(N2CCN(C)CC2)nc2ccccc12`: 1.6 nM; `CN1CCN(c2cc(C(=O)N(C)Cc3ccccc3)c3ccccc3n2)CC1`: 0.41 nM. Still for that read-out and setting: next, `CCOC(=O)c1c(C)c(N2CCNCC2)nc2ccccc12`: 0.56 nM; `CCOC(=O)c1c(C)c(N2CCN(C)CC2)nc2ccccc12`: 0.43 nM.

Take `Cc1c(N2CCN(C)CC2)nc2ccccc2c1C(=O)NCCCCCCCNc1c2c(nc3ccccc13)CCCC2`: affinity was put at a Ki of 5.6 nM.

Turning to `Cc1c(N2CCN(C)CC2)nc2ccccc2c1C(=O)N(C)Cc1ccccc1`, affinity was put at a Ki of 0.55 nM. Same read-out and setting: to `Cc1c(N2CCN(C)CC2)nc2ccccc2c1C(=O)N1CCCC1` belongs 1.6 nM; to `CCN(CC)C(=O)c1c(C)c(N2CCN(C)CC2)nc2ccccc12`, 0.37 nM; to `CCOC(=O)c1c(N2CCN(C)CC2)nc2ccccc2c1C`, 0.17 nM. On the same count and under the same terms, next, `Cc1c(N2CCN(C)CC2)nc2ccccc2c1C(=O)N(C)c1ccc(Cl)cc1`: 13 nM; `CCCc1c(N2CCN(C)CC2)nc2ccccc2c1C(=O)N(CCC)CCC`: 1.2 nM; `CCN1Cc2c(N3CCN(C)CC3)nc3ccccc3c2C1=O`: 3 nM.

The compound `CN1CCN(c2nc3ccccc3c3c2CN(Cc2ccccc2)C3=O)CC1` had a Ki of 6.2 nM. On to `CN1CCN(c2nc3ccccc3c3c2COC3=O)CC1`, for which the Ki was 2.4 nM.

As to `Cc1c(N2CCN(C)CC2)nc2ccccc2c1C(=O)N(C(C)C)C(C)C`, the affinity corresponds to a Ki of 2.2 nM. Still for that read-out and setting: next, `CN1CCN(c2nc3ccccc3c3c2CCC3)CC1`: 0.24 nM. Turning to `CCCN1Cc2c(N3CCN(C)CC3)nc3ccccc3c2C1=O`, the affinity, expressed as Ki, was 3.6 nM. On the same count and under the same terms, next, `CCC(C)N1Cc2c(N3CCN(C)CC3)nc3ccccc3c2C1=O` (stereo not drawn): 4.2 nM. Compound `CCCCCN(CCCCC)C(=O)c1c(C)c(N2CCN(C)CC2)nc2ccccc12` gave a Ki of 19 nM. Against the preceding compound, the Ki is about 4.5-fold higher. Turning to `CCc1c(N2CCN(C)CC2)nc2ccccc2c1C(=O)N(C)Cc1ccccc1`, the affinity corresponds to a Ki of 10 nM.

The values above are taken from ChEMBL document CHEMBL1139512, “Further studies on the interaction of the 5-hydroxytryptamine3 (5-HT3) receptor with arylpiperazine ligands. development of a new 5-HT3 receptor ligand showing potent acetylcholinesterase inhibitory properties” (J Med Chem, 2005).
